Measured values reported in patent US11046710B2, “Sulfonamide compounds” (DAIICHI SANKYO COMPANY, LIMITED, priority 2016, dated 2021).

Tested on: plasma ALP (80-90% containing TNAP)
Assay: Inhibitory test of plasma TNAP activity in B6 mouse
Format: in vivo
Conditions: oral, average 0-6 h after administration
Protocol: After blood sampling from the tail vein using a heparin-treated hematocrit capillary tube (EM Meister Hematocrit Capillary Tube, AS ONE Corp.) (as the sample before compound administration), each test compound suspended in a 0.5% methylcellulose solution (powder purchased from Wako Pure Chemical Industries, Ltd. was adjusted to 0.5% with Otsuka distilled water) was administered orally to the mouse. 1, 2, 4, 6, and 24 hours after the administration, blood was collected from the tail vein using a heparin-treated hematocrit capillary tube to obtain a plasma sample. The plasma sample was added to an assay buffer (1 M Tris, 1 M MgCl2, 20 mM ZnCl2, and water, pH 7.5), and the mixture was left standing for 5 minutes. Then, the absorbance at 405 nm was measured and used as a blank. The substrate pNPP was added to the plasma sample and incubated at room temperature for 180 minutes. Then, the absorbance (ABS: 405 nm) was measured using a microplate reader (model plus 384, Molecular Devices, LLC), and the concentration of produced p-nitrophenol was calculated. The blank was subtracted from all measurement values to calculate TNAP activity at each time point with the TNAP activity of the sample before compound administration defined as 100%. The pharmaceutical effect of the test compound was evaluated by the average inhibition of plasma ALP (80-90% containing TNAP) activity for 6 hours from 0 hour to 6 hour after the administration of the test compound. It was calculated according to the following expression: 100−((plasma ALP activity at 0 hr+plasma ALP activity at 1 hr)*½+(plasma ALP activity at 1 hr+plasma ALP activity at 2 hr)*½+(plasma ALP activity at 2 hr+plasma ALP activity at 4 hr)*2/2+(plasma ALP activity at 4 hr+plasma ALP activity at 6 hr)*2/2)/6 The results are shown in Table 2.

Structure (SMILES) | Plasma ALP inhibition (6 h ave. inhibition %) (dose 3 mg/kg) | Plasma ALP inhibition (6 h ave. inhibition %) (dose 1 mg/kg) | also measured
COc1ncc(Cl)cc1S(=O)(=O)[N-]c1cnc2c(c1)-c1ccnn1[C@@H](C)CO2.[K+] [Example 22, potassium [(5-chloro-2-methoxypyridin-3-yl)sulfonyl][(5S)-5-methyl-5,6-dihydropyrazolo[1,5-d]pyrido[3,2-f][1,4]oxazepin-10-yl]azanide] | 28.4% | – | –
COc1ccc(Cl)cc1S(=O)(=O)[N-]c1cnc2c(c1)-c1nnc(C)n1CCO2.[K+] [Example 2, Potassium [(5-chloro-2-methoxyphenyl)sulfonyl](3-methyl-5,6-dihydropyrido[3,2-f][1,2,4]triazolo[4,3-d][1,4]oxazepin-10-yl)azanide] | – | 34.4% | –
CCOc1ccc(F)cc1S(=O)(=O)[N-]c1cnc2c(c1)CN1C(=O)COC[C@H]1CO2.[K+] [Example 62, Potassium [(2-ethoxy-5-fluorophenyl)sulfonyl][(10aS)-7-oxo-7,8,10a,11-tetrahydro-5H,10H-[1,4]oxazino[3,4-c]pyrido[3,2-f][1,4]oxazepin-3-yl]azanide] | – | 76.0% | –
COC(=O)N[C@@H]1C[C@@H]2COc3ncc([N-]S(=O)(=O)c4cc(Cl)ccc4OC)cc3C(=O)N2C1.[K+] [Example 51, Potassium [(5-chloro-2-methoxyphenyl)sulfonyl]{(8R,9aR)-8-[(methoxycarbonyl)amino]-5-oxo-8,9,9a,10-tetrahydro-5H, 7H-pyrido[3,2-f]pyrrolo[2,1-c][1,4]oxazepin-3-yl}azanide] | – | 59.7% | –
COc1ccc(Cl)cc1S(=O)(=O)[N-]c1cnc2c(c1)-c1ccnn1CCO2.[K+] [Example 8, Potassium [(5-chloro-2-methoxyphenyl)sulfonyl](5,6-dihydropyrazolo[1,5-d]pyrido[3,2-f][1,4]oxazepin-10-yl)azanide] | 29.4% | – | –
CCOc1ccc(F)cc1S(=O)(=O)[N-]c1cnc2c(c1)-c1ccnn1CCO2.[K+] [Example 10, Potassium 5,6-dihydropyrazolo[1,5-d]pyrido[3,2-f][1,4]oxazepin-10-yl[(2-ethoxy-5-fluorophenyl)sulfonyl]azanide] | 43.3% | – | –
O=C1c2cc([N-]S(=O)(=O)c3cc(Cl)ccc3OC(F)(F)F)cnc2OC[C@H]2[C@@H](O)CCN12.[K+] [Example 43, Potassium {[5-chloro-2-(trifluoromethoxy)phenyl]sulfonyl}[(9S,9aS)-9-hydroxy-5-oxo-8,9,9a,10-tetrahydro-5H,7H-pyrido[3,2-f]pyrrolo[2,1-c][1,4]oxazepin-3-yl]azanide] | – | – | Plasma ALP inhibition (6 h ave. inhibition %) (dose 0.3 mg/kg): 65.5%
CNC(=O)O[C@H]1C[C@@H]2COc3ncc([N-]S(=O)(=O)c4cc(Cl)ccc4OC)cc3C(=O)N2C1.[K+] [Example 49, Potassium [(5-chloro-2-methoxyphenyl)sulfonyl]{(8S,9aR)-8-[(methylcarbamoyl)oxy]-5-oxo-8,9,9a,10-tetrahydro-5H,7H-pyrido[3,2-f]pyrrolo[2,1-c][1,4]oxazepin-3-yl}azanide] | – | 52.8% | –
COc1ccc(Cl)cc1S(=O)(=O)[N-]c1cnc2c(c1)CN1C(=O)[C@@H](O)C[C@H]1CO2.[K+] [Example 55, Potassium [(5-chloro-2-methoxyphenyl)sulfonyl][(8S,9aS)-8-hydroxy-7-oxo-8,9,9a,10-tetrahydro-5H,7H-pyrido[3,2-f]pyrrolo[2,1-c][1,4]oxazepin-3-yl]azanide] | – | 65.7% | –
CCc1nnc2n1CCOc1ncc([N-]S(=O)(=O)c3cc(Cl)ccc3OC)cc1-2.[K+] [Example 4, Potassium [(5-chloro-2-methoxyphenyl)sulfonyl](3-ethyl-5,6-dihydropyrido[3,2-f][1,2,4]triazolo[4,3-d][1,4]oxazepin-10-yl)azanide] | – | 40.7% | –
CCOc1ncc(F)cc1S(=O)(=O)[N-]c1cnc2c(c1)-c1ccnn1CCO2.[K+] [Example 15, Potassium 5,6-dihydropyrazolo[1,5-d]pyrido[3,2-f][1,4]oxazepin-10-yl[(2-ethoxy-5-fluoropyridin-3-yl)sulfonyl]azanide] | 61.4% | – | –
